Measurements taken from PMC8359378 (British Journal of Clinical Pharmacology, 2021).
Entries after “also recorded” stand apart in the source; their conditions may differ. Marks after values point to notes of the source that are not given here.

Legend:
healthy subjects = assay: safety and tolerability; assay type: in vivo, human
[1] = test system: prothrombin time [PT], international normalised ratio [INR]; assay: prothrombin time; assay type: in vivo, human; details: any of the dose levels tested in Part A or Part B
[2] = test system: FXa, FIXa, FXIIa, FVIIa, thrombin, tPA, urokinase and plasmin; details: cited from earlier work
[3] = biological target: factor XI coagulation activity (FXI:C) (Homo sapiens, UniProt P03951); assay: factor XI coagulation activity; assay type: in vivo
[4] = Part A, single dose 150 mg, fasted
[5] = Part A, single dose 300 mg, fasted
[6] = Part B, 80 mg QD for 14 days, fed
[7] = Part B, 150 mg QD for 14 days, fed
[8] = Part B, 250 mg QD for 14 days, fed
[9] = Part A, single dose 1 mg, fasted
[10] = Part A, single dose 5 mg, fasted
[11] = Part A, single dose 20 mg, fasted
[12] = Part A, single dose 80 mg, fasted

Chain of factor XI coagulation activity (FXI:C) (P03951 388-625 limits assumed): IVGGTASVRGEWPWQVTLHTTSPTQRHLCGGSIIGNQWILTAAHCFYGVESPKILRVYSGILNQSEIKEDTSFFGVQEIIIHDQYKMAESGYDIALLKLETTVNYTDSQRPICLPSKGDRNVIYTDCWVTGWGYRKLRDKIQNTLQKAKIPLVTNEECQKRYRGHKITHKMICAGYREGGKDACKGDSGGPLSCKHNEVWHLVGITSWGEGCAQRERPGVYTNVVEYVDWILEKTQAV
Chain of factor XI coagulation activity (FXI:C) (P03951 19-387 partner limits assumed): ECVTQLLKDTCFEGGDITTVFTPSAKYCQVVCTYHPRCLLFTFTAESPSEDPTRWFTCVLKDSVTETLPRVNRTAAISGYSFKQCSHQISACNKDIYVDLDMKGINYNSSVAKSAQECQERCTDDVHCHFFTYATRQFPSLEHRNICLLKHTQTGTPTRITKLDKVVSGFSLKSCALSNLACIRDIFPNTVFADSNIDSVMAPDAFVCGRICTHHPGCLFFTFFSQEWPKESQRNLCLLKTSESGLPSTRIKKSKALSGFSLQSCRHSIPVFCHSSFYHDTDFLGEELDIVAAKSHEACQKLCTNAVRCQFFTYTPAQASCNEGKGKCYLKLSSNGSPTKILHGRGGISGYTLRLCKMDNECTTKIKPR

time of maximal inhibition of FXI:C post‐dose ([3]; Part A, 80 mg fed group): approximately 8 hours
time of return of FXI:C and aPTT to near baseline levels post‐dose ([3]; Part A, 80, 150 and 300 mg): ≤ 72 h
time the effects on FXI:C and aPTT were maintained ([3]; Part A, 80, 150 and 300 mg): up to 24 hours
FXI:C Day 1 24 hours RTB, mean ± SD [3, 9]: 0.95 ± 0.141
FXI:C Day 1 24 hours inhibition, mean ± SD [3, 9]: 5 ± 14.1%
FXI:C Maximum on treatment inhibition, mean ± SD [3, 9]: 13 ± 7.7%
FXI:C Day 1 24 hours RTB, mean ± SD [3, 10]: 0.95 ± 0.049
FXI:C Day 1 24 hours inhibition, mean ± SD [3, 10]: 5 ± 4.9%
FXI:C Maximum on treatment inhibition, mean ± SD [3, 10]: 10 ± 2.6%
FXI:C Minimum on treatment RTB, mean ± SD [3, 10]: 0.90 ± 0.026
FXI:C Day 1 24 hours RTB, mean ± SD [3, 11]: 0.95 ± 0.185
FXI:C Day 1 24 hours inhibition, mean ± SD [3, 11]: 5 ± 18.5%
FXI:C Maximum on treatment inhibition, mean ± SD [3, 11]: 29 ± 4.8%
FXI:C Minimum on treatment RTB, mean ± SD [3, 11]: 0.71 ± 0.048
FXI:C Day 1 24 hours RTB, mean ± SD [3, 12]: 0.61 ± 0.051
FXI:C Day 1 24 hours inhibition, mean ± SD [3, 12]: 39 ± 5.1%
FXI:C Maximum on treatment inhibition, mean ± SD [3, 12]: 69 ± 7.0%
FXI:C Minimum on treatment RTB, mean ± SD [3, 12]: 0.31 ± 0.070
FXI:C Day 1 24 hours RTB, mean ± SD ([3]; Part A, single dose 80 mg, fed): 0.61 ± 0.066
FXI:C Day 1 24 hours inhibition, mean ± SD ([3]; Part A, single dose 80 mg, fed): 39 ± 6.6%
FXI:C Maximum on treatment inhibition, mean ± SD ([3]; Part A, single dose 80 mg, fed): 54 ± 8.9%
FXI:C Minimum on treatment RTB, mean ± SD ([3]; Part A, single dose 80 mg, fed): 0.46 ± 0.089
FXI:C Day 1 24 hours RTB, mean ± SD [3, 4]: 0.48 ± 0.057
FXI:C Maximum on treatment inhibition, mean ± SD [3, 4]: 78 ± 3.4%
FXI:C Minimum on treatment RTB, mean ± SD [3, 4]: 0.22 ± 0.034
FXI:C Day 1 24 hours RTB, mean ± SD [3, 5]: 0.26 ± 0.089
FXI:C Day 1 24 hours inhibition, mean ± SD [3, 5]: 74 ± 8.9%
time of maximal inhibition of FXI:C post‐dose ([3]; Part A, single dose of 20–300 mg): approximately 4 hours
FXI:C Minimum on treatment RTB, mean ± SD [3, 6]: 0.25 ± 0.077
FXI:C Day 1 24 hours RTB, mean ± SD ([3]; Part B, 80 mg QD, fed): 0.67 ± 0.035
FXI:C Day 14 24 hours RTB, mean ± SD ([3]; Part B, 80 mg QD, fed): 0.39 ± 0.111
FXI:C Minimum on treatment RTB, mean ± SD [3, 7]: 0.15 ± 0.052
FXI:C Day 1 24 hours RTB, mean ± SD ([3]; Part B, 150 mg QD, fed): 0.48 ± 0.112
FXI:C Day 14 24 hours RTB, mean ± SD ([3]; Part B, 150 mg QD, fed): 0.27 ± 0.096
FXI:C Day 1 24 hours RTB, mean ± SD ([3]; Part B, 250 mg QD, fed): 0.33 ± 0.065
FXI:C Day 14 24 hours RTB, mean ± SD ([3]; Part B, 250 mg QD, fed): 0.14 ± 0.053
time of maximal inhibition of FXI:C post‐dose ([3]; Part B, first dose of 80, 150 and 250 mg): approximately 4 hours
SMILES: Nc1ccc(-c2nc([C@H]3CCc4cc(-c5cc(Cl)ccc5-n5cnnn5)cc(=O)n43)c(F)[nH]2)c(F)n1 [ONO‐7684]
Skin laceration TEAE, subjects (healthy subjects; Part A, single dose 80 mg, fed): 0 n (%)
Thrombocytopenia TEAE, subjects (healthy subjects; Part A, single dose 80 mg, fed): 0 n (%)
Abdominal pain upper TEAE, subjects (healthy subjects; [4]): 0 n (%)
All TEAEs, subjects (healthy subjects; [4]): 0 n (%)
Dizziness TEAE, subjects (healthy subjects; [4]): 0 n (%)
Gonorrhoea TEAE, subjects (healthy subjects; [4]): 0 n (%)
Headache TEAE, subjects (healthy subjects; [4]): 0 n (%)
Lethargy TEAE, subjects (healthy subjects; [4]): 0 n (%)
Nasopharyngitis TEAE, subjects (healthy subjects; [4]): 0 n (%)
Nausea TEAE, subjects (healthy subjects; [4]): 0 n (%)
Pain TEAE, subjects (healthy subjects; [4]): 0 n (%)
Skin laceration TEAE, subjects (healthy subjects; [4]): 0 n (%)
Thrombocytopenia TEAE, subjects (healthy subjects; [4]): 0 n (%)
Abdominal pain upper TEAE, subjects (healthy subjects; [5]): 0 n (%)
All TEAEs, subjects (healthy subjects; [5]): 2 (33.3) n (%)
Dizziness TEAE, subjects (healthy subjects; [5]): 0 n (%)
Gonorrhoea TEAE, subjects (healthy subjects; [5]): 0 n (%)
Headache TEAE, subjects (healthy subjects; [5]): 2 (33.3)^a n (%)
Lethargy TEAE, subjects (healthy subjects; [5]): 0 n (%)
Nasopharyngitis TEAE, subjects (healthy subjects; [5]): 0 n (%)
Nausea TEAE, subjects (healthy subjects; [5]): 0 n (%)
Pain TEAE, subjects (healthy subjects; [5]): 0 n (%)
Skin laceration TEAE, subjects (healthy subjects; [5]): 0 n (%)
Thrombocytopenia TEAE, subjects (healthy subjects; [5]): 1 (16.7) n (%)
All TEAEs, subjects (healthy subjects; [6]): 2 (33.3) n (%)
Bleeding time prolonged TEAE, subjects (healthy subjects; [6]): 0 n (%)
Dizziness TEAE, subjects (healthy subjects; [6]): 1 (16.7) n (%)
Headache TEAE, subjects (healthy subjects; [6]): 1 (16.7) n (%)
Muscle twitching TEAE, subjects (healthy subjects; [6]): 1 (16.7) n (%)
All TEAEs, subjects (healthy subjects; [7]): No TEAEs
Bleeding time prolonged TEAE, subjects (healthy subjects; [7]): 0 n (%)
Dizziness TEAE, subjects (healthy subjects; [7]): 0 n (%)
Headache TEAE, subjects (healthy subjects; [7]): 0 n (%)
Muscle twitching TEAE, subjects (healthy subjects; [7]): 0 n (%)
All TEAEs, subjects (healthy subjects; Part B, 150 mg QD for 14 days, fed, listed as ONO 7684): 0 n (%)
All TEAEs, subjects (healthy subjects; [8]): No TEAEs
Bleeding time prolonged TEAE, subjects (healthy subjects; [8]): 0 n (%)
Dizziness TEAE, subjects (healthy subjects; [8]): 0 n (%)
Headache TEAE, subjects (healthy subjects; [8]): 0 n (%)
Muscle twitching TEAE, subjects (healthy subjects; [8]): 0 n (%)
All TEAEs, subjects (healthy subjects; Part B, 250 mg QD for 14 days, fed, listed as ONO 7684): 0 n (%)
bleeding risk (healthy subjects; Parts A and B): no evidence to suggest a bleeding risk; also recorded: no evidence of a bleeding risk
severe or serious TEAEs, TEAEs leading to discontinuation (healthy subjects; Parts A and B): no severe or serious TEAEs
tolerability (healthy subjects; all dose levels, single and repeated doses): well tolerated at all dose levels tested
effect on INR [1]: did not significantly affect
effect on PT [1]: did not significantly affect
selectivity for FXIa relative to other coagulation/fibrinolysis factors [2]: highly selective for FXIa
